Source: PubChem BioAssay AID179 (DTP/NCI, 2004)
Active and inactive are the calls of the source.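 How the source made its calls: active means compounds giving half or more protection of infected cells from virus-caused growth loss, again on retest; inactive means the rest.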

Test system: CEM cells HIV-1 protection, formazan growth assay
Experiment: NCI AIDS Antiviral Assay
Conditions: for IC50: measured here: growth of uninfected CEM cells
Procedure, shortened: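 Soluble formazan readout of cell growth; CEM cells ± HIV-1; 5 drug concs. ≥50% protection → retest; ≥50% again = moderately active; reproducible 100% = confirmed active.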

In the case of `CNNc1ncnc2c1cnn2C`, the EC50 is reported as over 794 µM and the IC50 is reported as over 794 µM.
`COC(=O)CP(=O)(OC)OCC(F)(F)F` (stereo not given) gave an EC50 of over 1000 µM and an IC50 of 832 µM.
For `NCCCCN(CCCN)C(=O)c1ccccc1`, the outcome was “inactive”.
For `COc1cc([C@H]2c3cc(O)c(OC)cc3CC3C(=O)OCC32)ccc1O` (stereo not given in full), the EC50 was over 363 µM and the IC50 was over 363 µM.
Work on `Cc1ccc(C)n1N1CC(C)N(N=O)CC1C` (stereo not given) yielded an EC50 of over 200 µM and an IC50 of over 200 µM.
For `CSc1n[nH]c(N)c1C(=O)Nc1ccccc1`, the EC50 was over 186 µM and the IC50 was 117 µM.
`O=C1c2ccccc2C(=O)c2sc(Nc3ccccc3Cl)nc21` was tested, and the EC50 was over 7.94 µM and the IC50 was over 7.94 µM.
Work on `CC1(C)CS(=O)(=O)CC(C)(C)C(=N/N)/C1=N\N` yielded an EC50 of over 200 µM and an IC50 of over 200 µM.
`CCOC(=O)c1ccc(Nc2nc3cc(C(F)(F)F)ccc3nc2C(=O)OCC)cc1` gave an EC50 of over 200 µM and an IC50 of 83.2 µM.
`O=[As](O)(O)c1ccc(-c2ccc([As](=O)(O)O)cc2)cc1` gave an EC50 of over 200 µM and an IC50 of over 200 µM.
For `C=CCCON(C(=O)OC(C)(C)C)c1ccccc1`, the EC50 was over 200 µM and the IC50 was 57.5 µM.
Compound `Cc1ccc(NC(=O)c2[nH]c(=S)nc(N)c2-c2ccccc2C)cc1C` has an EC50 of over 692 µM and an IC50 of over 692 µM.
With `CC(C)(C)[Si](C)(C)OCC1OC(n2ccc(=O)[nH]c2=O)C(O[Si](C)(C)C(C)(C)C)[C@]12N[C@H](C(=O)O)CS2` (stereo not given in full) the EC50 was over 200 µM and the IC50 was 10.7 µM.
`COC(=O)C1=CC(O)CCC1c1ccc(OC)cc1` (stereo not given) gave an EC50 of over 363 µM and an IC50 of over 363 µM.
`Cc1cc(N(CCC#N)CCC#N)ccc1C=Nc1ccc(C(=O)NN2C(=O)/C(=C/c3ccc(N(CCC#N)CCC#N)cc3)N=C2c2cc([N+](=O)[O-])ccc2Cl)cc1` was tested, and the EC50 was over 44.7 µM and the IC50 was over 44.7 µM.
`O=c1ccnc2ccc3n[nH][nH]c3c12` was tested, and the outcome was “inactive”.
`CN1C(=O)Nc2ncn(C)c2S1(=O)=O` gave an EC50 of over 603 µM and an IC50 of over 603 µM.
`C#CCSc1nnnn1-c1ccccc1` showed an EC50 of over 200 µM and an IC50 of 3.24 µM.
For `Cc1cccc(-c2nc3sc(-c4cccc(C)n4)nc3s2)n1`, the outcome was “inactive”.
`OC(C/C=N/Nc1ccccc1)(C(F)(F)Cl)C(F)(F)Cl` was tested, and the EC50 was over 200 µM and the IC50 was 10 µM.
With `CCCCCCC(CC)(C(=O)O)C(=O)O` the EC50 was over 437 µM and the IC50 was over 437 µM.
For `CC1(C)N=C(c2ccccc2)C2(c3ccccc3)N1C2(C)C` (stereo not given), the EC50 was over 234 µM and the IC50 was 224 µM.
With `CCOC(=O)N1[C@@H]2CCC[C@@H]2C(=O)[C@@H]2CCC[C@@H]21` the EC50 was over 200 µM and the IC50 was over 200 µM.
`CCc1c(CNC2=NCCN2)c(CC)c(CNC2=NCCN2)c(CC)c1CNC1=NCCN1` showed an EC50 of over 200 µM and an IC50 of over 200 µM.
`COc1cc(C2c3cc4c(cc3OC(NNc3ccccc3)C2C)OCO4)cc(OC)c1O` (stereo not given) was tested, and the outcome was “inactive”.
For `COc1cc2c(cc1OC)/C(=C\c1ccccc1N)C(=O)OC2`, the outcome was “inactive”.
Compound `CC1=C(C)CP(=O)(c2ccccc2)C1` has an EC50 of 0.0631 µM and an IC50 of over 200 µM.
For `CC(C)[C@@H]1C=C(c2ccccc2)c2ccccc2C1C(C#N)(C#N)C(C)C` (stereo not given in full), the EC50 was over 20.4 µM and the IC50 was over 20.4 µM.
With `COC(=O)C1=C(C)C(=O)[C@]23C(CCCC[C@H]12)C(=O)[C@H](C(=O)OC)C3C` (stereo not given in full) the EC50 was over 200 µM and the IC50 was over 200 µM.
With `CC(C)(C)N/N=C(\C(=O)Nc1nc(=S)[nH][nH]1)C1C(=O)Nc2ccccc2S1=O` (stereo not given) the outcome was “inactive”.
`O=C1OC(c2cccc3ccccc23)c2ccccc21` (stereo not given) showed an EC50 of over 501 µM and an IC50 of 26.3 µM.
`C=CCC(C(=O)OC)C1(C(=O)OC)c2[nH]c3ccccc3c2CCN1Cc1ccccc1` (stereo not given) showed an EC50 of over 39.8 µM and an IC50 of over 39.8 µM.
For `Cc1cc(-c2ccc(N=Nc3c(N)c(S(=O)(=O)O)cc4cc(S(=O)(=O)O)ccc34)c(C)c2)ccc1N=Nc1c(N)ccc2cc(S(=O)(=O)O)ccc12`, the outcome was “active”.
`Cc1ccc(/C=N/NS(=O)(=O)c2ccc(/C=C3\NC(=O)NC3=O)cc2)cc1` showed an EC50 of over 200 µM and an IC50 of over 200 µM.
`CC1=C(C(=O)Nc2cc(F)c(F)cc2F)C(c2ccc([N+](=O)[O-])cc2)C(C(=O)Nc2cc(F)c(F)cc2F)=C(C)N1` gave an EC50 of over 77.6 µM and an IC50 of 72.4 µM.
`O=S(=O)(O)c1cc(N=Nc2ccc(O)c3ncccc23)ccc1CCc1ccc(N=Nc2ccc(O)c3ncccc23)cc1S(=O)(=O)O` showed an EC50 of 6.31 µM and an IC50 of 42.7 µM.
Compound `N#Cc1nc(-c2cccnc2)oc1N` has an EC50 of over 200 µM and an IC50 of over 200 µM.
`O=[N+]([O-])C1=C(c2ccccc2)SC=C(c2ccccc2)S1` was tested, and the EC50 was over 200 µM and the IC50 was 9.77 µM.
With `CCCCCSCCCCCCCC(=O)OCC1OC(n2cc(C)c(=O)[nH]c2=O)CC1N=[N+]=[N-]` (stereo not given) the outcome was “active” and the IC50 was 91.2 µM.
With `O=[N+]([O-])C(=C1NCCN1)/C(Cl)=C(\Cl)Br` the EC50 was over 200 µM and the IC50 was 16.6 µM.
In the case of `N#CC(C#N)=C1NC(=O)C(c2ccccc2)C(=O)N1` (stereo not given), the outcome is reported as “inactive”.
`CCN(c1ccc(Br)cc1)c1c(Br)c(=O)nc2ccccn12` was tested, and the EC50 was over 525 µM and the IC50 was 97.7 µM.
In the case of `COc1nc(=O)n(C2CC(N=[N+]=[N-])C(CO)O2)cc1C` (stereo not given), the EC50 is reported as 17.4 µM and the IC50 is reported as over 200 µM.
Work on `C/C(=N\N=C(\[Se])N1CCN(c2ccccn2)CC1)c1ccccn1` yielded an EC50 of over 36.3 µM and an IC50 of 0.0155 µM.
